{
  "source": "patent US20100286264A1",
  "about": "“COMPOSITION COMPRISING A NITROOXYDERIVATIVE OF ACETAMINOPHEN AND A ANTICONVULSANT DRUG FOR THE TREATMENT OF NEUROPATHIC PAIN” (Nicox S.A., priority 2008, published 2010)",
  "test_system": "spinal cord neuronal responses from adult male Wistar rats with mononeuropathy",
  "test": "Recording of single motor units: nociceptive responses in rats with mononeuropathy (partial sciatic nerve ligation)",
  "assay_type": "in vivo, rat",
  "conditions": "for Nociceptive responses to noxious mechanical stimulation: i.v., ± S.E.M.",
  "experimental": "The application routes were intravenous (i.v.). The enhancement of the antinociception was studied by isobolographic analysis. Mononeuropathy was induced under anesthetic regime, seven days before the experiment, using the partial ligation of the sciatic nerve technique. The development of hyperalgesia was assessed by behavioral experiments, studying withdrawal reflex responses evoked by mechanical and thermal stimulation.",
  "data": [
    {"smiles": "CC(=O)Nc1ccc(OC(=O)CCCO[N+](=O)[O-])cc1", "note": "[Compound 1, 4-(nitrooxy)butanoic acid 4-(N-acetylamino)phenyl ester]", "values": [
      {"measurement": "Nociceptive responses to noxious mechanical stimulation", "setting": "compound 1 15 μmol/kg alone (gabapentin 0)", "value": "98 ± 6 percentage of vehicle values"},
      {"measurement": "Nociceptive responses to noxious mechanical stimulation", "setting": "compound 1 30 μmol/kg alone (gabapentin 0)", "value": "95 ± 2 percentage of vehicle values"},
      {"measurement": "Nociceptive responses to noxious mechanical stimulation", "setting": "compound 1 60 μmol/kg alone (gabapentin 0)", "value": "91 ± 4.5 percentage of vehicle values"},
      {"measurement": "Nociceptive responses to noxious mechanical stimulation", "setting": "compound 1 120 μmol/kg alone (gabapentin 0)", "value": "86 ± 5 percentage of vehicle values"},
      {"measurement": "Nociceptive responses to noxious mechanical stimulation", "setting": "compound 1 240 μmol/kg alone (gabapentin 0)", "value": "75 ± 9 percentage of vehicle values"},
      {"measurement": "Effect on nociceptive responses evoked by noxious mechanical and electrical stimulation", "setting": "intravenous, mechanical and electrical stimulation", "value": "dose-dependently reduced the nociceptive responses"},
      {"measurement": "ID50 for noxious mechanical stimulation", "setting": "intravenous, rats with mononeuropathy, noxious mechanical stimulation", "value": "542 ± 5", "unit": "µmol/kg"}
    ]},
    {"smiles": "NCC1(CC(=O)O)CCCCC1", "note": "[Gabapentin, reference compound]", "values": [
      {"measurement": "Nociceptive responses to noxious mechanical stimulation", "setting": "gabapentin 20 μmol/kg alone", "value": "100 ± 5 percentage of vehicle values"},
      {"measurement": "Nociceptive responses to noxious mechanical stimulation", "setting": "gabapentin 40 μmol/kg alone", "value": "95 ± 1 percentage of vehicle values"},
      {"measurement": "Nociceptive responses to noxious mechanical stimulation", "setting": "gabapentin 80 μmol/kg alone", "value": "95 ± 2 percentage of vehicle values"},
      {"measurement": "Nociceptive responses to noxious mechanical stimulation", "setting": "gabapentin 160 μmol/kg alone", "value": "79 ± 3 percentage of vehicle values"},
      {"measurement": "Nociceptive responses to noxious mechanical stimulation", "setting": "gabapentin 320 μmol/kg alone", "value": "59 ± 6 percentage of vehicle values"}
    ]}
  ]
}
